This note sets out measurements from patent US20230048888A1, “USE OF TRIAZOLOTRIAZINE DERIVATIVE IN TREATMENT OF DISEASES” (ZHEJIANG VIMGREEN PHARMACEUTICALS, LTD., priority 2019, published 2023).

Data set [1] in a line: Pharmacokinetics of Compounds 27, 16, 14 and 22 in SD rats. To be noted: for AUC(0-t) / Cmax / half-life / clearance: Sprague-Dawley, rat, in vivo; for clearance: read-out: Cl—pred (converted). The data set is classed as in vivo. The source says: WinNonlin® 6.4 was used as the calculation software for PK parameters.
Data set [2] is described as follows: Pharmacokinetics of Compounds 22, 27 and 40 in SD rats after oral administration for 7 consecutive days. The format is in vivo. To be noted: for Accumulation after consecutive administration: SD rats; for AUC / AUC(0-t) / Cmax / Tmax: rat, plasma; for AUC / Cavg / Cmin / AUC(0-t) / Cmax / Tmax: male SD rats; for AUC(0-t) / Cmax / Tmax: male, po, 30 mg/kg; for Tmax: median. The procedure:
12 male SD rats (about 7-9 weeks old on the day of administration, 283.0-298.1 g) were purchased from SPF (Beijing) Biotechnology Co., Ltd. They were randomly divided into 3 groups, with 4 rats in each group, and received orally administration once daily for 7 consecutive days. Compound 27 was administrated to Group 1 at 30 mg/kg, Compound 22 was administrated to Group 2 at 30 mg/kg, and Compound 40 was administrated to Group 3 at 30 mg/kg. All animals had free access to water and diet during dosing.
0.3366 g of Compound 27, 0.3333 g of Compound 22 and 0.3366 g of Compound 40 were weighed out respectively, and dissolved in 44 mL of PEG400 with stirring and ultrasonication; 50 mL of PBS was added to the resulting mixture, stirred and sonicated for complete dissolution; PBS was added to fix the volume to the final volume of 110 mL, thereby obtaining the target formulation solution with the final concentration of 3.0 mg/mL. The prepared formulation solution was divided into 7 portions, each of 15 mL, and stored in a refrigerator at 4° C. Before administration, the formulation was held at room temperature, until its temperature returned to room temperature; the formulation was stirred at room temperature for at least 10 minutes; and the stirring continued during the administration. The entire process for preparing the formulation was operated under yellow light, and during transferring, the prepared formulation was wrapped with tin foil to protect it from light.
The concentrations of Compounds 27, 22 and 40 in the plasma of SD rats were determined by liquid chromatography-mass spectrometry, with […] as the internal standard compound. With the mass spectrometer scanning in the electrospray ion source positive ion mode, the mass-to-charge ratios of parent ions to daughter ions in Compounds 27, 40 and 22 and tolbutamide were 395.2→178.2, 404.2→158.9, 393.4→146.2 and 455.2→165.0, respectively.
The pharmacokinetic parameters of Compounds 27, 40 and 22 were calculated by the software Phoenix™ WinNonlin Version 6.1 using the non-compartmental model. Pharmacokinetic data was calculated using the linear logarithmic trapezoidal method, with a weight of 1/Y*Y. Samples with the sample concentration below the lower limit of quantification were excluded from the calculation of pharmacokinetic parameters. […] The mean time to peak (Tmax) was represented as a median.

Data set [3] concerns the target T1, Human adenosine ADORA1 receptor membrane protein (Homo sapiens, UniProt P30542).
T1 construct: purchased PerkinElmer ES-010-M400UA
T1 sequence (P30542 1-326): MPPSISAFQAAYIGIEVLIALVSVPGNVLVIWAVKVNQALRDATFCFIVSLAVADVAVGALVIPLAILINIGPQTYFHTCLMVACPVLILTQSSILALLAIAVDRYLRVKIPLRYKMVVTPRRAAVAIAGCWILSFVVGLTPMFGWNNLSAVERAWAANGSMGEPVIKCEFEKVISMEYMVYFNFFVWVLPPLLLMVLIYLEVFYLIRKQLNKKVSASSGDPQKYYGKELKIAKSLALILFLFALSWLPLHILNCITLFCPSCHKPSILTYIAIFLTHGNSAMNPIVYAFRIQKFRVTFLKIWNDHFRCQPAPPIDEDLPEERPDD
As to the kind of experiment: Radioisotope ligand competitive binding, ADORA1 ([3H] DPCPX). To be noted: ADORA1 (IC50, nM, n = 3), binding test. The procedure:
ADORA1: 25 mM HEPES pH 7.4, 5 mM MgCl2, 1 mM CaCl2, 100 mM NaCl
(§1) 4) Preparation of compounds: the test compounds and the reference compounds were separately diluted with 100% DMSO.
(§2) 1 μL of a sample to be tested and 1 μL of a reference compound were added to a 96-well plate in sequence. […] 100 μL of cells and 100 μL of isotopes were added to all experimental wells. The 96-well plate was sealed; ADORA1, ADORA2B, and ADORA3 were incubated for 1 hour on a shaker (300 rpm) at room temperature (22° C.); and ADORA2A was incubated for 2 hours on a shaker (300 rpm) at room temperature (22° C.). At the same time, a GF/C filter plate was soaked with ADORA1, ADORA2A, ADORA2B, and ADORA3 by using 0.3% PEI for at least 30 minutes at room temperature, at 50 μL/well. After the incubation was completed, the incubated reaction system was collected onto the GF/C filter plate with a Harvester, washed 4 times and then dried for 0.5 hours in an oven at 50° C. The bottom of the dried GF/C filter plate was sealed with a film, 50 μL of scintillation solution was added to each well, which was then sealed with a Top-seal-A film. With Microbeta readings, the data was analyzed by GraphPad Prism 5.0.
(§3) % Inhibition=100×(1−(Sample_raw value−Low control_Average)/(High control_Average−Low control_Average))
(§4) The data was fitted with “log(inhibitor) vs response-variable slope” in GraphPad Prism 5.0 to obtain IC50.

For data set [4], the target named is T2, Human adenosine ADORA2B receptor membrane protein (Homo sapiens, UniProt P29275).
T2 construct: purchased PerkinElmer ES-013-M400UA
T2 sequence (P29275 1-332): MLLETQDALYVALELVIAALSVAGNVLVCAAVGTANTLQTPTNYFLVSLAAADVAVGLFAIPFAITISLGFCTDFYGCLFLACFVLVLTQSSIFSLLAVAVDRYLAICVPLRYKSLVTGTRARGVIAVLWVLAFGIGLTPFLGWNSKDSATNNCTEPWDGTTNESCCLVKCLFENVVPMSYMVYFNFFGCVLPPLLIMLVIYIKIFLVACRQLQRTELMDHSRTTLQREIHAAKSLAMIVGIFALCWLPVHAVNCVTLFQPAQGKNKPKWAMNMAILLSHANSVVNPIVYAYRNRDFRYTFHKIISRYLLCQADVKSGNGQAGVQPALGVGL
Nature of the data set: Radioisotope ligand competitive binding, ADORA2B ([3H] DPCPX). To be noted: ADORA2B (IC50, nM, n = 3), binding test. As to the method:
ADORA2B: 50 mM HEPES pH 7.0, 5 mM MgCl2, 1 mM EDTA
as §1, §2, §3, §4

[5] abbreviates: oral 30 mg/kg once a day for 7 consecutive days.
Where [6] appears, read: Sprague-Dawley, oral 30 mg/kg once a day for 7 consecutive days, Day 7, mean.
The mark [7] stands for this setting: oral 30 mg/kg once a day for 7 consecutive days, Day 7, mean.
Where [8] appears, read: Sprague-Dawley (SD), oral 30 mg/kg once a day, Day 1, read-out: drug exposure AUC0-t.
Setting [9] is: Sprague-Dawley (SD), oral 30 mg/kg once a day, Day 1, read-out: maximum plasma concentration Cmax.
Where [10] appears, read: Sprague-Dawley (SD), oral 30 mg/kg once a day, seventh day, read-out: drug exposure AUC0-t.
[11] abbreviates: Sprague-Dawley (SD), oral 30 mg/kg once a day, seventh day, read-out: maximum plasma concentration Cmax.
The mark [12] stands for this setting: Sprague-Dawley, oral 30 mg/kg once a day for 7 consecutive days, Day 7, mean, read-out: AUC0-t.
Setting [13] is: Sprague-Dawley, oral 30 mg/kg once a day for 7 consecutive days, Day 7, mean, read-out: Cmax.
Where [14] appears, read: Sprague-Dawley, oral 30 mg/kg once a day for 7 consecutive days, Day 7.
Where [15] appears, read: Sprague-Dawley, oral 30 mg/kg once a day, Day 1, mean, read-out: AUC0-t.
Setting [16] is: Sprague-Dawley, oral 30 mg/kg once a day, Day 1, mean, read-out: Cmax.
[17] abbreviates: Sprague-Dawley, oral 30 mg/kg once a day, Day 1.

As for `COCCNc1ccc(CCNc2nc(N)n3nc(-c4ccco4)nc3n2)cc1` [Compound 27, 2-(furan-2-yl)-N5-(4-((2-methoxyethyl)amino)phenethyl)-[1,2,4]triazolo[1,5-a][1,3,5]triazine-5,7-diamine], the “Cl—F—pred” value in data set [1] (PO, dose 5 (mg/kg)) was found to be 8.82 L/h/kg. Besides, in data set [1] (PO, dose 5 (mg/kg)), the F turned out to be 33.85%. Also, the AUC(0-t) is 0.477 µg·h/mL in data set [1] (IV, dose 1 (mg/kg)); 0.484 µg·h/mL in data set [1] (PO, dose 5 (mg/kg)); 29.6 µg·h/mL in data set [2] (setting [8]); 22.2 µg·h/mL in data set [2] (setting [10]); 22.2 µg·h/mL in data set [2] (setting [12]); 29.6 µg·h/mL in data set [2] (setting [15]). For the same compound, the Cmax was 1.34 µg/mL in data set [1] (IV, dose 1 (mg/kg)); 0.318 µg/mL in data set [1] (PO, dose 5 (mg/kg)); 7.1 µg/mL in data set [2] (setting [9]); 4.62 µg/mL in data set [2] (setting [11]); 4.62 µg/mL in data set [2] (setting [13]); 7.1 µg/mL in data set [2] (setting [16]). The half-life in data set [1] (IV, dose 1 (mg/kg)) is 0.51 h; in data set [1] (PO, dose 5 (mg/kg)), 4.36 h. The clearance in data set [1] (IV, dose 1 (mg/kg)) is 2.16 L/h/kg. Further, the “Accumulation after consecutive administration” value (shortened to “Accumulation”) in data set [2] (setting [5]) is “do not show significant accumulation”. The compound also yielded an AUC in data set [2] (setting [6]) of 22.2 µg·h/mL. Further, the Cavg in data set [2] (setting [7]) came to 0.925 µg/mL. The Cmin in data set [2] (setting [7]) worked out at 0.00923 µg/mL. Also, the results for the Tmax in data set [2] (setting [14]) and in data set [2] (setting [17]) were 1.5 h and 2 h, respectively.
As to `Nc1nc(NCCc2ccc(NC3COC3)cc2)nc2nc(-c3ccco3)nn12` [Compound 22, 2-(furan-2-yl)-N5-(4-(oxetan-3-ylamino)phenethyl)-[1,2,4]triazolo[1,5-a][1,3,5]triazine-5,7-diamine], the 50% inhibitory concentration (IC50) stood at 821 ± 54.2 nM in data set [3] (Table 10 (IC50)), 564 nM in data set [3] (Table 11), 344 ± 181 nM in data set [4] (Table 10 (IC50)) and 310 nM in data set [4] (Table 11). Also, the “Cl—F—pred” value in data set [1] (PO, dose 3 (mg/kg)) turned out to be 1.52 L/h/kg. The same compound registered a F in data set [1] (PO, dose 3 (mg/kg)) of 39.49%. The AUC(0-t) was 1.77 µg·h/mL in data set [1] (IV, dose 1 (mg/kg)); 2.1 µg·h/mL in data set [1] (PO, dose 3 (mg/kg)); 6.63 µg·h/mL in data set [2] (setting [8]); 6.95 µg·h/mL in data set [2] (setting [10]); 6.95 µg·h/mL in data set [2] (setting [12]); 6.63 µg·h/mL in data set [2] (setting [15]). In addition, the Cmax was 2.35 µg/mL in data set [1] (IV, dose 1 (mg/kg)); 0.58 µg/mL in data set [1] (PO, dose 3 (mg/kg)); 1.02 µg/mL in data set [2] (setting [9]); 0.947 µg/mL in data set [2] (setting [11]); 0.947 µg/mL in data set [2] (setting [13]); 1.02 µg/mL in data set [2] (setting [16]). The half-life in data set [1] (IV, dose 1 (mg/kg)) is 1 h; in data set [1] (PO, dose 3 (mg/kg)), 3.3 h. Also, in data set [1] (IV, dose 1 (mg/kg)), the clearance is 0.57 L/h/kg. Further, the “Accumulation” value in data set [2] (setting [5]) was “do not show significant accumulation”. For the same compound, the AUC in data set [2] (setting [6]) was 6.95 µg·h/mL. In data set [2] (setting [7]), this compound showed a Cavg of 0.29 µg/mL. In addition, in data set [2] (setting [7]), the Cmin was 0.0114 µg/mL. Also, the time of peak concentration (Tmax) in data set [2] (setting [14]) stood at 1.5 h; in data set [2] (setting [17]), 4 h.
For the compound `Cn1nnc(-c2ccc(CCNc3nc(N)n4nc(-c5ccco5)nc4n3)cc2)n1` [Compound 40, N5-(4-(2-methyl-2H-tetrazol-5-yl)phenethyl)-2-(furan-2-yl)-[1,2,4]triazolo[1,5-a][1,3,5]triazine-5,7-diamine], the IC50 in data set [3] (Table 10 (IC50)) is 552 ± 283 nM; in data set [3] (Table 11), 441 nM; in data set [4] (Table 10 (IC50)), 268 ± 87.5 nM; in data set [4] (Table 11), 242 nM. Further, the “Accumulation” value in data set [2] (setting [5]) is reported as “do not show significant accumulation”. Besides, in data set [2] (setting [6]), the exposure (AUC) amounted to 6.58 µg·h/mL. Also, the Cavg in data set [2] (setting [7]) was determined as 0.274 µg/mL. In data set [2] (setting [7]), this compound showed a Cmin of 0.0523 µg/mL. In addition, the AUC(0-t) in data set [2] (setting [8]) amounted to 5.15 µg·h/mL; in data set [2] (setting [10]), 6.58 µg·h/mL; in data set [2] (setting [12]), 6.58 µg·h/mL; in data set [2] (setting [15]), 5.15 µg·h/mL. For the same compound, the Cmax in data set [2] (setting [9]) amounted to 0.503 µg/mL; in data set [2] (setting [11]) it was 0.581 µg/mL; in data set [2] (setting [13]), 0.581 µg/mL; in data set [2] (setting [16]), 0.503 µg/mL. The Tmax in data set [2] (setting [14]) was 4 h; in data set [2] (setting [17]), 3 h.

As usually defined, the half-life is the time in which the quantity being followed falls by half. Lower therefore signals fast loss. As usually defined, the AUC is concentration integrated over time. A lower AUC goes with less exposure. Broadly, the Tmax is the time from dosing to the highest level. Usually IC50 stands for the midpoint of a concentration-inhibition curve. Low values mean greater potency in that assay, high ones weaker potency in that assay.
